The target of this experiment is human PDE4B1 (Homo sapiens (Human), UniProt Q07343). The experiment can be described thus: TR-FRET assay using the LANCE Ultra cAMP kit to determine the activity of hPDE4B1. Conditions: IC50 inhibition of PDE4B, mean. Type of experiment: biochemical. In outline: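 Recombinant human PDE4B1 (Sf9-expressed, 0.96 U) incubated with compound and 500 nM cAMP in 50 mM Tris-HCl, 50 mM MgCl2, 5 mM DTT, pH 8.5, 30 min at room temperature. Residual cAMP read by TR-FRET (665/620 nm ratio) after IBMX stop. IC50 from ten-concentration curves as % inhibition of control.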
Chain of human PDE4B1 (Q07343 whole entry): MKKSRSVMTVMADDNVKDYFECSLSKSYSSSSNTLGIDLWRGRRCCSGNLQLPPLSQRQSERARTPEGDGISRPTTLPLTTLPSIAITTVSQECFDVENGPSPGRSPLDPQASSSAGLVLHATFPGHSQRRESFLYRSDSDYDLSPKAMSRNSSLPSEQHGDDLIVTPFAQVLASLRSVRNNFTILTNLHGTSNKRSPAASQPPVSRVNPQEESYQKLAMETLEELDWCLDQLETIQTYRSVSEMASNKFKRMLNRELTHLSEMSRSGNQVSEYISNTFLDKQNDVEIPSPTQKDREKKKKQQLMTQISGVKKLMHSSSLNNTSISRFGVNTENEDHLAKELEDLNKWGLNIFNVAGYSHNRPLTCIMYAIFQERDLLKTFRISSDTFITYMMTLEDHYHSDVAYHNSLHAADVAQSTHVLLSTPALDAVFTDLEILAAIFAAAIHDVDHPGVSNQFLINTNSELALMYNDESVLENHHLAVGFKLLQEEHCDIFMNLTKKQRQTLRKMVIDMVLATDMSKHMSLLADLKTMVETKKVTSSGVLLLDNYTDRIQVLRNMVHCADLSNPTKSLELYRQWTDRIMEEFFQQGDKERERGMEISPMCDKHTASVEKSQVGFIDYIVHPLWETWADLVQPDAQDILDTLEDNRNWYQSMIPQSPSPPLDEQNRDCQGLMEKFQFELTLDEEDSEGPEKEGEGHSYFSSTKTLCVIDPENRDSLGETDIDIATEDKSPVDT
On the technique in general: In TR-FRET formats the signal depends on donor and acceptor labels being close together.

From patent US10189854B2, “Substituted pyrimidine compounds” (Grünenthal GmbH, priority 2014, dated 2019) come the findings set out here.

What is called IC50 is the midpoint of a concentration-inhibition curve. Low values mean higher potency, high ones lower potency.

As for `O=C(c1ccc2c(c1)N(c1ncc(-c3cc(C4CC4)ccn3)cn1)CC21CC1)N1CCC[C@@H](CO)C1` [Compound 336, [1-[5-(4-Cyclopropyl-pyridin-2-yl)-pyrimidin-2-yl]-spiro[1,2-dihydro-indole-3,1′-cyclopropane]-6-yl]-[(3R)-3-(hydroxymethyl)-piperidin-1-yl]-methanone], the IC50 is < 0.1 µM.
